3 molecules from US20250144230A1, “LINKERS FOR USE IN ANTIBODY DRUG CONJUGATES” (Orum Therapeutics, Inc., priority 2021, published 2025) can be followed below.

Where only a bound is given, the exact number is not on record here.

By EC50 is commonly meant the midpoint of the concentration-response curve. Higher therefore signals a need for much substance.

Test [1] deals with MV-4-11 cells. The experiment in a line: In vitro MV-4-11 antiproliferation assay (alamarBlue). The class given is cell-based, human. Particulars: 4 days, test article alone. As for the experimental part:
MV-4-11 cells were exposed to varying concentrations of conjugates or antibodies for 4 days with/without 1 μM of the blocking antibody Gemtuzumab or Trastuzumab. Viability of the cells was determined by alamarBlue. The antiproliferative activity of the gemtuzumab conjugate of Compound (XL) and the unconjuaged BRD4 degrader small molecule Compound 40-3 are showin in FIG. 13. […] The antibodies alone were not active up to […].
On the technique in general: Resazurin is reduced to fluorescent resorufin, in cell work by metabolically active cells.

Test [2] concerns the target T1, BRD4 (Homo sapiens, UniProt O60885).
T1 construct: endogenous in cells; host or cells: MV4-11
The experiment in a line: In vitro BRD4 protein degradation assay (Western blot). The class given is cell-based. Particulars: 10 nM, MV4-11 cells, overnight. On the procedure: The ability of the claimed conjugates to degrade BRD4 was measured using an in vitro degradation assay. MV4-11 cells were incubated with test article overnight. Protein was loaded to 4-12% NuPAGE Bis-Tris gel. Western blot with rabbit anti-BRD4 Ab (Cell Signaling #13440) was performed at 1:1,000 dilution and re-blotting with β-actin HRP (Cell Signaling #5125) was performed at 1:1,000. The degradation activity of the gemtuzumab conjugate Compound (XL) and the unconjuaged BRD4 degrader small molecule Compound 40-3 are shown in FIG. 14.
Background: In western blotting, separated proteins are transferred to a membrane and probed.

The test system of test [3] is MV-4-11 human acute myeloid leukemia cells. As to the kind of experiment: In vivo MV-4-11 subcutaneous myeloid leukemia tumor model. Particulars: 0.4 mg/kg IP once a day for 14 days (equivalent to conjugated payload dose). Details: species or system Athymic Nude mice. As for the experimental part: Subcutaneous tumor model—MV-4-11 human acute myeloid leukemia cells (1×10^7 cells in 0.1 mL) were subcutaneously inoculated into the right flank of female Athymic Nude mice. Mice were treated with each test article when the tumor size reached 100-150 mm^3. 10 mg/kg of CD33-D antibody-Compound (XL) conjugate (in 20 mM succinate, 8% sucrose, 0.01% Tween-20 pH 5.5) was delivered by intravenous administration (IV) once a week for 2 weeks. 0.4 mg/kg of Compound (XL) (in 5% NMP, 45% PEG300, 20 mM NaPi pH 6.5) and 10 mg/kg of ARV-825 (as described in Liu, et al. Chemistry & Biology 2015, volume 22, pages 755-763) in 1.5 mg/mL, 5% Kolliphor, HS15 WFI Buffer was treated by intraperitoneal administration (IP) once a day for 14 days. Tumor size and mouse body weight were measured twice per week. Subcutaneous tumor volume (mm^3) was calculated with the following formula: (a×b^2/2) where ‘b’ is the smallest diameter and ‘a’ is the largest diameter. The study endpoint is that individual mice were euthanized following respective tumor volume ≥1,000 mm^3 or day 60, whichever came first.

Test [4] has as its target T2, CD79b (Homo sapiens, UniProt P40259).
T2 construct: endogenous in cells; host or cells: Ramos
T2 sequence (P40259 29-229): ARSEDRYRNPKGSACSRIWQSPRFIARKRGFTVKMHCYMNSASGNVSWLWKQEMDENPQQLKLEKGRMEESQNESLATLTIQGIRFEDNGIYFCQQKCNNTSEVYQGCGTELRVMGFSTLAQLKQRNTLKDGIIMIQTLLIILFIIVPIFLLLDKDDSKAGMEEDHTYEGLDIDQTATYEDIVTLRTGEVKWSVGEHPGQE
T2 sequence (P11912 33-226 partner): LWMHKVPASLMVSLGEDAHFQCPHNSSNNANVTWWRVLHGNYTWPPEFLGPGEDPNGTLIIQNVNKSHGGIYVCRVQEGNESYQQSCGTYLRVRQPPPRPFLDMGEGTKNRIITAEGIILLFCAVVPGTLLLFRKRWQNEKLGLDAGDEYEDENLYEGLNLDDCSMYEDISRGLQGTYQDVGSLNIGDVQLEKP
As to the kind of experiment: Binding of conjugate and parent antibody to cancer cells (flow cytometry), CD79b / Ramos. Particulars: 1 hour at 4° C.; conjugate at DARs 2.0, 3.2 and 4.6.

For test [5], the target named is T3, CD79b (UniProt P40259 29-229, limits assumed).
T3 construct: whole, on cells; Endogenous antigen on the cell line
T3 sequence (looked up): T2 sequence (P40259 29-229)
As to the kind of experiment: flow cytometry binding to Ramos cells (procedure of Example 10).

As to `Cn1cc(-c2cc(NC(=O)CCCCC(=O)NCCCCNc3cccc4c3C(=O)N(C3CCC(=O)NC3=O)C4=O)ccc2Oc2ccc(F)cc2F)c2cc[nH]c2c1=O` (centres unmarked) [Compound 40-3, N′-[4-(2,4-difluorophenoxy)-3-{6-methyl-7-oxo-1H-pyrrolo[2,3-c]pyridin-4-yl}phenyl]-N-(4-{[2-(2,6-dioxopiperidin-3-yl)-1,3-dioxoisoindol-4-yl]amino}butyl)hexanediamide, reference compound], the “antiproliferative activity against MV-4-11 cells (in words)” value in test [1] is on record as “highly active”. In addition, the “reduction in BRD4 protein band intensity” value in test [2] is > 90%. The “effect on MV-4-11 tumor growth” value in test [3] is “inactive”.

Regarding “Synagis N297A: non-binding control antibody”, the “CD79b binding on Ramos cells by flow cytometry (in words)” value in test [4] is on record as “relatively negligible signal intensity”.

B1: CD79b-A antibody (antibody, V domains shown)
VH: EVQLVESGGGLVQPGGSLRLSCAASGYTFSSYWIEWVRQAPGKGLEWIGEILPGGGDTNYNEIFKGRATFSADTSKNTAYLQMNSLRAEDTAVYYCTRRVPIRLDYWGQGTLVTVSS
VL: DIQLTQSPSSLSASVGDRVTITCKASQSVDYEGDSFLNWYQQKPGKAPKLLIYAASNLESGVPSRFSGSGSGTDFTLTISSLQPEDFATYYCQQSNEDPLTFGQGTKVEIK
notes: also called Polatuzumab
The molecule B1 displayed an EC50 in test [5] of 0.74 nM.
